Reference: US6352716B1, “Steroidal liposomes” (The Liposome Company Inc., priority 1984, dated 2002)
Converted amounts (≈) assume the structure as drawn. Where two headings read alike, the source gives them in different places.

Legend:
[1] = cited from earlier work
[2] = Retention of 125I-human growth hormone in the hind limb after intramuscular injection; parameters: species or system Swiss-Webster mice; conditions: mouse, in vivo
Description: A group of 12 female Swiss-Webster mice were injected intramuscularly in the hind limb with 0.5 ml of the CHS-MLV entrapped ^125I-HGH suspension. A control group of 12 mice were injected with 0.5 ml free ^125I-HGH in .01 M Tris-HCl, 0.14 M NaCl buffer. Each animal in both groups received approximately 35,000 cpm/animal. At periodic intervals post-injection, the mice were sacrificed, the hind limb dissected, and percent total radioactivity remaining was determined. […] Thus, when injected intramuscularly, the CHS-liposome entrapped drug is released in a sustained fashion.

[3] = format: physicochemical; conditions: arsenazo III 4.5 mM, buffer pH 7.3, 50-54 mg salt in 1 ml, MLVs washed three times
Description: (§1) The 2-amino-2-methyl-1,3-propanediol salt of cholesterol hemisuccinate (50 mg) was added to a 1 ml solution of arsenazo III (4.5 mM, final concentration) in 0.01 M 2-amino-2-methyl-1,3-propanediol-HCl (pH 7.3), 0.07 M KCl, 0.07 M NaCl. The suspension of CHS-MLVs was formed by mixing vortically with glass beads. The CHS-MLVs were pelleted by centrifugation at 10,000×g for 15 minutes, and the resulting pellet was washed three times as described in Section 6.1.1.
as §1, with “2-aminoethanol” for “2-amino-2-methyl-1,3-propanediol”, “2-aminoethanol-HCl” for “2-amino-2-methyl-1,3-propanediol-HCl”, “vertically” for “vortically”
The suspension of CHS-MLVs was formed by mixing vertically with glass beads. The CHS-MLVs were pelleted by centrifugation at 10,000×g for 15 minutes, and the resulting pellet was washed three times as described in Section 6.1.1.
as §1, with “triethanolamine” for “2-amino-2-methyl-1,3-propanediol”, “triethanolamine-HCL” for “2-amino-2-methyl-1,3-propanediol-HCl”

[4] = Entrapment of 3H-diazepam in sonicated CHS-SUVs; conditions: Diazepam 5 mg/ml
[5] = format: physicochemical
Description: CHS-MLVs were prepared as described in Section 6.2 using 25 mg tris-salt CHS in 1.0 ml 0.01 M Tris-HCl (pH 7.4), 0.14 M NaCl buffer. The CHS-MLV preparation was sonicated to clarify to form sonicated CHS-SUVs and then either 5, 10, 15, 25, 30 or 166 mg BGH (Eli Lilly & Co., Indianapolis, Ind.) was added to separate aliquots of the sonicated CHS-SUV suspension. The suspensions were extensively mixed vortically, resulting in partitioning of the protein into the CHS-SUV bilayers. The sonicated CHS-SUV suspensions were visually observed for the presence of precipitate at 1, 2, and 21 days.
CHS-MLVs were prepared as described in Section 6.2 using 25 mg tris-salt CHS in 1.0 ml 0.01 M Tris-HCl (pH 7.4), 0.14 M Nacl buffer. The CHS-MLV preparation was sonicated to clarity to form sonicated CHS-SUVs and up to 47 mg zinc-insulin powder (Boving Pancreatic Insulin, Sigma Chemical Co., St. Louis, Mo.) was added to the CHS-SUV suspension. The suspension was extensively mixed vortically, resulting in partitioning of the insulin into the CHS-SUV bilayers. The sonicatd CHS-SUVs were visually observed for the presence of precipitate at 1, 2, and 21 days. […] Insulin entrapment occurs more rapidly at 37° C.
Small unilamellar vesicles were prepared as follows: 100 mg tylosin-base (Eli Lilly & Co., Indianapolis, Ind.) and 200 mg tris-salt CHS were mixed vertically in 4 ml phosphate buffered saline (pH 7.4). […]

Molecule: COc1ccc2c(c1)c(CC(=O)O)c(C)n2C(=O)c1ccc(Cl)cc1 [Indomethacin]
- solubility in water [1]: practically insoluble in water

Molecule: ^125I-HGH: free 125I-labelled human growth hormone in 0.01M Tris-HCl, 0.14M NaCl
- % Radioactivity Remaining in Limb ([2]; 3 h): 5%
- % Radioactivity Remaining in Limb ([2]; 24 h): 0.7%
- % Radioactivity Remaining in Limb ([2]; 72 h): 0.2%
- % Radioactivity Remaining in Limb ([2]; 168 h): 0.3%

Molecule: CC(C)CCC[C@@H](C)[C@H]1CC[C@H]2[C@@H]3CC=C4C[C@@H](OC(=O)CCC(=O)O)CC[C@]4(C)[C@H]3CC[C@]12C.NCCO [2-aminoethanol salt of cholesterol hemisuccinate]
- entrapment of arsenazo III (colour of washed pellet) [3]: red in color indicating entrapment of the arsenazo III

Molecule: CC(C)CCC[C@@H](C)[C@H]1CC[C@H]2[C@@H]3CC=C4C[C@@H](OC(=O)CCC(=O)O)CC[C@]4(C)[C@H]3CC[C@]12C.CC(N)(CO)CO [2-amino-2-methyl-1,3-propanediol salt of cholesterol hemisuccinate]
- entrapment of arsenazo III (colour of washed pellet) [3]: red in color indicating entrapment of the arsenazo III

Molecule: CC(C)CCCC(C)C1CCC2C3CC=C4CC(OC(=O)CCC(=O)O)CCC4(C)C3CCC12C.OCCN(CCO)CCO (stereo not drawn) [triethanolamine salt of cholesterol hemisuccinate]
- entrapment of arsenazo III (colour of washed pellet) [3]: red in color indicating entrapment of the arsenazo III

Molecule: CC(C)CCC[C@@H](C)[C@H]1CC[C@H]2[C@@H]3CC=C4C[C@@H](OC(=O)CCC(=O)O)CC[C@]4(C)[C@H]3CC[C@]12C.NC(CO)(CO)CO [Tris-salt CHS, tris(hydroxymethyl)aminomethane salt of cholesteryl hemisuccinate]
- % 3H-Diazepam Entrapped ([4]; CHS 100 mg/ml): 100%
- % 3H-Diazepam Entrapped ([4]; CHS 200 mg/ml): 100%
- entrapment of arsenazo III (colour of washed pellet) [3]: red in color indicating entrapment of the arsenazo III

Molecule: Zinc-insulin: a polypeptide hormone; zinc-insulin powder, bovine pancreatic insulin from Sigma
- solubility in aqueous phases ([1]; pH 4.5): practically insoluble

Molecule: CC[C@H]1OC(=O)C[C@@H](O)[C@H](C)[C@@H](O[C@@H]2O[C@H](C)[C@@H](O[C@H]3C[C@@](C)(O)[C@@H](O)[C@H](C)O3)[C@H](N(C)C)[C@H]2O)[C@@H](CC=O)C[C@@H](C)C(=O)/C=C/C(C)=C/[C@@H]1CO[C@@H]1O[C@H](C)[C@@H](O)[C@@H](OC)[C@H]1OC [Tylosin, reference compound]
- precipitate formation (visual comparison) ([5]; 100 mg tylosin base in 4 ml: CHS-SUV supernatant versus suspension in water): A precipitate formed
- solubility in water ([1]; 25° C.): 5 mg/mL (≈ 5.46 mM)

B1: BGH: a simple protein composed of a single chain of approximately 191 amino acids (protein, UniProt P01246 27-217, looked up)
Somatotropin: AFPAMSLSGLFANAVLRAQHLHQLAADTFKEFERTYIPEGQRYSIQNTQVAFCFSETIPAPTGKNEAQQKSDLELLRISLLLIQSWLGPLQFLSRVFTNSLVFGTSDRVYEKLKDLEEGILALMRELEDGTPRAGQILKQTYDKFDTNMRSDDALLKNYGLLSCFRKDLHKTETYLRVMKCRRFGEASCAF
- presence of precipitate at 1, 2, and 21 days ([5]; 5-166 mg BGH added to sonicated CHS-SUVs (25 mg tris-salt CHS in 1.0 ml), room temperature): No precipitate was observed
